Holding throughout (type): biochemical
The target in assay [1] is T1, Escherichia coli DS encoded by aroF, variant aroF15, 147 Asp → Asn (pTS-aroF15) (Escherichia coli, UniProt P00888, D147N).
T1 construct: cloning the natural DS gene of Escherichia coli; made in house; host or cells: Escherichia coli AB3257 (strain AJ 12598), crude enzyme solution
As to the kind of experiment: DS enzyme activity in the presence of L-tyrosine (crude enzyme solution). Particulars: crude enzyme of AJ 12598 (AB3257/pTS-aroF15); concentration not stated in text (Fig. 2). An excerpt: (§1) The above plasmids, bearing either mutant aroF (pTS-aroF15 and pTS-aroF33) or mutant aroG (pTS-aroG4, pTS-aroG8, pTS-aroG15, pTS-aroG17, pTS-aroG29 and pTS-aroG40), were used to transform Escherichia coli AB3257 strain having no DS activity. The respective transformants were named AJ 12598 (AB3257/pTS-aroF15), AJ 12599 (AB3257/pTS-aroF33), AJ 12562 (AB3257/pTS-aroG4), AJ 12600 (AB3257/pTS-aroG8), AJ 12563 (AB3257/pTS-aroG15), AJ 12601 (AB3257/pTS-aroG17), AJ 12602 (AB3257/pTS-aroG29) and AJ 12603 (AB3257/pTS-aroG40), respectively. Among them, AJ 12563 and AJ 12603 were deposited as representative strains in the Fermentation Research Institute of the Agency of Industrial Science & Technology of Japan, under the deposit numbers Escherichia coli FERM BP-3567 and FERM BP-3568, respectively. For the purpose of comparison, plasmids hearing wild type genes were also used to transform the E. coli AB3257 strain.
(§2) Each of these strains were cultured for 24 hours in a known L-phenylalanine-producing medium [Sugimoto, S. et al., J. Biotechnol., 5, 237 (1988)]. From the culture cells, the crude enzyme solution was prepared by ultrasonic homogenization. The enzyme activity of DS was determined in a conventional manner [Gollub, E. et al., Methods Enzymol., 17, 349], in the presence of L-tyrosine in the case of aroF, and in the presence of L-phenylalanine in the case of aroG.

The target of assay [2] is T2, Escherichia coli 3-deoxy-D-arabinoheptulonic acid-7-phosphate synthase (DS) encoded by aroF, wild type (pTS-aroF) (Escherichia coli, UniProt P00888).
T2 construct: cloning the natural DS gene of Escherichia coli; made in house; host or cells: Escherichia coli AB3257 (aroF, aroG, aroH deleted), crude enzyme solution
The assay is described as above. Particulars: crude enzyme of AB3257/pTS-aroF; concentration not stated in text (Fig. 2).
Source text: as §1, §2

Assay [3] deals with T3, Escherichia coli DS encoded by aroF, variant aroF33, 181 Ser → Phe (pTS-aroF33) (Escherichia coli, UniProt P00888, S181F).
T3 construct: cloning the natural DS gene of Escherichia coli; made in house; host or cells: Escherichia coli AB3257 (strain AJ 12599), crude enzyme solution
The assay is described as above. Particulars: crude enzyme of AJ 12599 (AB3257/pTS-aroF33); concentration not stated in text (Fig. 2).
Source text: as §1, §2

The target in assay [4] is T4, Escherichia coli K-12 chorismate mutase-prephenate dehydratase (CM-PD), variant with 330 serine residue substituted with a proline residue (pPHAB) (Escherichia coli, UniProt P0A9J8, S330P).
T4 construct: the natural CM-PD gene of Escherichia coli is cloned; made in house; host or cells: Escherichia coli K-12 W3110 (tyrA), crude enzyme solution
Description: PD enzyme activity in the presence of L-phenylalanine (crude enzyme). Particulars: 5 mM L-phenylalanine; 1 mM barium prephenate, 0.5 mM L-tyrosine, pH 8.2, 37°C, 10 minutes; Fig. 4. Here is the method: (§3) Escherichia coli K-12 W3110 (tyrA)/(pPHAB) strain was cultured at 37°C for 15 hours in L medium and the cells were collected by centrifugation. Then, the cells were washed twice with physiological saline, and suspended in 250 mM Tris-hydrochloride buffer (pH 7.5) containing 0.5 mM dithiothreitol under ice cooling. By ultrasonication (20 KHz) for 30 seconds four times, the crude enzyme solution was prepared.
(§4) The PD enzyme activity was determined in a conventional manner [Cotton, R.G.H. and Gibson, F., Meth. in Enzymol., 17, 564 (1970)]. Using the crude enzyme, the enzymatic reaction was carried out at 37°C for 10 minutes in the presence of 50 mM Tris-hydrochloride buffer (pH 8.2) containing 1 mM barium prephenate and 0.5 mM L-tyrosine. Aqueous sodium hydroxide (1 N) was added to terminate the reaction, and the formed phenylpyruvic acid was measured at an extinction wavelength of 320 nm.
(§5) Quantitative determination of protein was made using the Protein Assay Kit (manufactured by Bio Rad Co.), according to the protocol of the manufacturer.

The target in assay [5] is T5, Escherichia coli chorismate mutase-prephenate dehydratase (CM-PD), wild type (Escherichia coli, UniProt P0A9J8).
T5 construct: the natural CM-PD gene of Escherichia coli is cloned; made in house
The description is as above. Particulars: 0.5 mM L-phenylalanine; 1 mM barium prephenate, 0.5 mM L-tyrosine, pH 8.2, 37°C, 10 minutes; Fig. 4. How it is done:
as §3, §4, §5

Assay [6] has as its target T6, Escherichia coli DS encoded by aroG, variant aroG4, 150 Pro → Leu (pTS-aroG4, strain AJ 12562) (Escherichia coli, UniProt P0AB91, P150L).
T6 construct: cloning the natural DS gene of Escherichia coli; made in house; host or cells: Escherichia coli AB3257 (strain AJ 12562), crude enzyme solution
Description: DS enzyme activity in the presence of L-phenylalanine (crude enzyme solution). Particulars: crude enzyme of AJ 12562 (AB3257/pTS-aroG4); Fig. 3.
Source text: as §1, §2

Assay [7] concerns the target T7, Escherichia coli DS encoded by aroG, variant aroG15, 146 Asp → Asn (pTS-aroG15) (Escherichia coli, UniProt P0AB91, D146N).
T7 construct: cloning the natural DS gene of Escherichia coli; made in house; host or cells: Escherichia coli AB3257 (strain AJ 12563), crude enzyme solution
The assay is described as above. Particulars: crude enzyme of AJ 12563 (AB3257/pTS-aroG15); Fig. 3.
Source text: as §1, §2

Assay [8] has as its target T8, Escherichia coli DS encoded by aroG, variant aroG8, 202 Ala → Thr (pTS-aroG8) (Escherichia coli, UniProt P0AB91, A202T).
T8 construct: cloning the natural DS gene of Escherichia coli; made in house; host or cells: Escherichia coli AB3257 (strain AJ 12600), crude enzyme solution
The description is as above. Particulars: crude enzyme of AJ 12600 (AB3257/pTS-aroG8); Fig. 3.
Source text: as §1, §2

The target in assay [9] is T9, Escherichia coli DS encoded by aroG, variant aroG40, 157 Met → Ile, 219 Ala → Thr (pTS-aroG40) (Escherichia coli, UniProt P0AB91, A219T/M157I).
T9 construct: cloning the natural DS gene of Escherichia coli; made in house; host or cells: Escherichia coli AB3257 (strain AJ 12603), crude enzyme solution
Described as above. Particulars: crude enzyme of AJ 12603 (AB3257/pTS-aroG40); Fig. 3.
Source text: as §1, §2

For assay [10], the target named is T10, Escherichia coli DS encoded by aroG, variant aroG29, 147 Met → Ile (pTS-aroG29) (Escherichia coli, UniProt P0AB91, M147I).
T10 construct: cloning the natural DS gene of Escherichia coli; made in house; host or cells: Escherichia coli AB3257 (strain AJ 12602), crude enzyme solution
Described as above. Particulars: crude enzyme of AJ 12602 (AB3257/pTS-aroG29); Fig. 3.
Source text: as §1, §2

In assay [11] the target is T11, Escherichia coli DS encoded by aroG, variant aroG17, 147 Met → Ile, 332 Glu → Lys (pTS-aroG17) (Escherichia coli, UniProt P0AB91, E332K/M147I).
T11 construct: cloning the natural DS gene of Escherichia coli; made in house; host or cells: Escherichia coli AB3257 (strain AJ 12601), crude enzyme solution
Described as above. Particulars: crude enzyme of AJ 12601 (AB3257/pTS-aroG17); Fig. 3.
Source text: as §1, §2

The target in assay [12] is T12, Escherichia coli 3-deoxy-D-arabinoheptulonic acid-7-phosphate synthase (DS) encoded by aroG, wild type (pTS-aroG) (Escherichia coli, UniProt P0AB91).
T12 construct: cloning the natural DS gene of Escherichia coli; made in house; host or cells: Escherichia coli AB3257 (no DS activity), crude enzyme solution
Described as above. Particulars: crude enzyme of AB3257/pTS-aroG; concentration not stated in text (Fig. 3).
Source text: as §1, §2

Assay [13] concerns the target T13, Escherichia coli K-12 chorismate mutase-prephenate dehydratase (CM-PD), variant with 330 serine residue substituted with an aspartic acid (pPHAD) (Escherichia coli, UniProt P0A9J8, S330D).
T13 construct: the natural CM-PD gene of Escherichia coli is cloned; made in house; host or cells: Escherichia coli W3110 (tyrA), crude enzyme
As to the kind of experiment: PD enzyme activity in the presence of L-phenylalanine (crude enzyme). Particulars: crude enzyme of W3110 (tyrA)/(pPHAD); concentration not given. How it is done:
as §3, §4, §5
(§6) By using the same method above, the PD enzyme activities of Escherichia coli W3110 (tyrA)/(pPHAD) and Escherichia coli W3110 (tyrA)/(pPHATerm) were determined.

Assay [14] deals with T14, Escherichia coli K-12 chorismate mutase-prephenate dehydratase (CM-PD), variant with amino acid residues downstream from the 330 serine residue deleted (pPHATer (Escherichia coli, UniProt P0A9J8)).
T14 construct: made in house; host or cells: Escherichia coli W3110 (tyrA), crude enzyme
The description is as above. Particulars: crude enzyme of W3110 (tyrA)/(pPHATerm); concentration not given. How it is done:
as §3, §4, §5, §6

The structures appear in SMILES notation.

On to `N[C@@H](Cc1ccc(O)cc1)C(=O)O` [L-tyrosine], for which the “inhibition by L-tyrosine of DS enzyme activity” value in assay [1] is reported as “released from feedback inhibition”; in [2] it was “strongly inhibited”; in assay [3], “released from feedback inhibition”.
`N[C@@H](Cc1ccccc1)C(=O)O` [L-phenylalanine]: the “inhibition by L-phenylalanine of prephenate dehydratase activity” value in [4] is “almost no inhibition”; in assay [5], “strongly inhibited”. The “DS enzyme activity as a function of L-phenylalanine concentration” value in assay [6] is listed as “increases as the concentration of L-phenylalanine increases”. Also, the “inhibition by L-phenylalanine of DS enzyme activity” value in assay [6] is “releases feedback inhibition”; in assay [7], “feedback inhibition by L-phenylalanine is released”; in assay [8], “feedback inhibition by L-phenylalanine is released”; in [9], “feedback inhibition by L-phenylalanine is released”; in [10], “feedback inhibition by L-phenylalanine is released”; in [11] it was “feedback inhibition by L-phenylalanine is released”. In addition, in assay [12], the “inhibition by L-phenylalanine of DS enzyme activity” value was “strongly inhibited”. Further, the “feedback inhibition by L-phenylalanine of PD enzyme activity” value in [13] and in assay [14] was “released from feedback inhibition” each time.

The record behind these values is patent publication EP0488424B1, “Recombinant DNA sequences encoding feedback inhibition released enzymes, plasmids comprising the recombinant DNA sequences, transformed microorganisms useful in the production of aromatic amino acids, and a process for preparing aromatic amino acids by fermentation” (priority 1990, dated 1992).
